Measurements reported in ChEMBL document CHEMBL5212743, “Selectivity Literature for EUbOPEN Chemogenomics Library wave 3” (2023).
One block for each compound: values may come before it.

How the values were obtained:
[1] = target: T1, Sigma non-opioid intracellular receptor 1 (Homo sapiens, UniProt Q99720); test: Selectivity interaction (GPCR panel (PDSP screen)) EUB0000748a SIGMAR1
[2] = target: 5-hydroxytryptamine receptor 2B (Homo sapiens, UniProt P41595); test: Selectivity interaction (GPCR panel (PDSP screen)) EUB0000748a HTR2B
[3] = target: G protein-coupled receptor kinase 3 (Homo sapiens, UniProt P35626); test: Selectivity interaction (KinomeScan (DiscoverX, competition-binding assay)) EUB0000289c ADRBK2
[4] = target: Ephrin type-A receptor 1 (Homo sapiens) (UniProt P21709); test: Selectivity interaction (KinomeScan (DiscoverX)) EUB0000289c EPHA1; settings: at 1 µM
[5] = target: Lysosomal Pro-X carboxypeptidase (Homo sapiens) (UniProt P42785); test: Selectivity interaction (CEREP panel (Eurofins, panel of ion channels, receptors, GPCRs, and enzymes (ligand binding assay))) EUB0000289c PRCP; settings: at 3 µM
[6] = target: Serine/threonine-protein kinase BRSK2 (Homo sapiens) (UniProt Q8IWQ3); test: Selectivity interaction (KinomeScan (DiscoverX)) EUB0000289c BRSK2; settings: at 1 µM
[7] = target: Ephrin type-A receptor 1 (Homo sapiens, UniProt P21709); test: Selectivity interaction (KinomeScan (DiscoverX, competition-binding assay)) EUB0000289c EPHA1
[8] = target: T2, Histamine H1 receptor (Homo sapiens, UniProt P35367); test: Selectivity interaction (GPCR panel (PDSP screen)) EUB0000289c HRH1
[9] = target: T3, Serine/threonine-protein kinase Nek7 (Homo sapiens, UniProt Q8TDX7); test: Selectivity interaction (KinomeScan (DiscoverX, competition-binding assay)) EUB0000289c NEK7
Target sequence in this assay (Q8TDX7 whole entry): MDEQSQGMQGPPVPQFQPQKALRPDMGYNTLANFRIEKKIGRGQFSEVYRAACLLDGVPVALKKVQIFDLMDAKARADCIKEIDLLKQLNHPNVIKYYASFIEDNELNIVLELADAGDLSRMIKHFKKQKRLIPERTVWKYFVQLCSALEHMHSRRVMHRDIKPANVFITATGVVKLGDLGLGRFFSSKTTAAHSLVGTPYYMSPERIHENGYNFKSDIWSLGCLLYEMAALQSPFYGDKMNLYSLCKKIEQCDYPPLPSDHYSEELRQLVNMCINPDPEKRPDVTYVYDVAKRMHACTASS

[10] = target: T3, Serine/threonine-protein kinase Nek7; test: Selectivity interaction (KinomeScan (DiscoverX)) EUB0000289c NEK7; settings: at 1 µM
Target sequence in this assay (Q8TDX7 whole entry, looked up): as the sequence (Q8TDX7 whole entry) above

[11] = target: Serine/threonine-protein kinase BRSK2 (Homo sapiens, UniProt Q8IWQ3); test: Selectivity interaction (KinomeScan (DiscoverX, competition-binding assay)) EUB0000289c BRSK2
[12] = target: T4, G protein-coupled receptor kinase 3 (Homo sapiens) (UniProt P35626); test: Selectivity interaction (KinomeScan (DiscoverX)) EUB0000289c ADRBK2; settings: at 1 µM
T4 sequence (whole entry): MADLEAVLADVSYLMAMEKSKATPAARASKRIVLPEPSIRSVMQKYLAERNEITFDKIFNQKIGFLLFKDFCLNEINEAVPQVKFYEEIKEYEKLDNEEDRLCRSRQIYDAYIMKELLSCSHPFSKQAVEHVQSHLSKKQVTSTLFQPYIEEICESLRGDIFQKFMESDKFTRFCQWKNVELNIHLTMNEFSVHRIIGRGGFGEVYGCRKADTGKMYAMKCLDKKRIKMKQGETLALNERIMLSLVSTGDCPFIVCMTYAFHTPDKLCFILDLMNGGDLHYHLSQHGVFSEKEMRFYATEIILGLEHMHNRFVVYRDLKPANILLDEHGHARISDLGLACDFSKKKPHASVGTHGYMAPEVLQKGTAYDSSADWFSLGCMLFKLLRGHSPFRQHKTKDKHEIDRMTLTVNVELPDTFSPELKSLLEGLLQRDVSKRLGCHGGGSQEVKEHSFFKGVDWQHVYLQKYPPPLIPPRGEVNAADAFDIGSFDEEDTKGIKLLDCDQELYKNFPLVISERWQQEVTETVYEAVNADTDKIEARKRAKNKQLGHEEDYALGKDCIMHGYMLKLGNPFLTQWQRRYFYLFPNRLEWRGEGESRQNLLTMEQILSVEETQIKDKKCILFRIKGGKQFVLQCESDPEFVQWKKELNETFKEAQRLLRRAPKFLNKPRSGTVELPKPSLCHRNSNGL

[13] = target: Tyrosine-protein kinase HCK (Homo sapiens, UniProt P08631); test: Selectivity interaction (Z’-LYTE assay) EUB0000638a HCK
[14] = target: Tyrosine-protein kinase Yes (Homo sapiens, UniProt P07947); test: Selectivity interaction (Z’-LYTE assay) EUB0000638a YES1
[15] = target: Tyrosine-protein kinase Fyn (Homo sapiens, UniProt P06241); test: Selectivity interaction (Z’-LYTE assay) EUB0000638a FYN
[16] = target: Tyrosine-protein kinase Lck (Homo sapiens, UniProt P06239); test: Selectivity interaction (Z’-LYTE assay) EUB0000638a LCK
[17] = target: Tyrosine-protein kinase Blk (Homo sapiens, UniProt P51451); test: Selectivity interaction (Z’-LYTE assay) EUB0000638a BLK
[18] = target: Receptor tyrosine-protein kinase erbB-2 (Homo sapiens) (UniProt P04626); test: Selectivity interaction (KinomeScan (DiscoverX)) EUB0000638a ERBB2; settings: at 1 µM
[19] = target: Tyrosine-protein kinase Lyn (Homo sapiens, UniProt P07948); test: Selectivity interaction (Z’-LYTE assay) EUB0000638a LYN
[20] = target: Proto-oncogene tyrosine-protein kinase Src (Homo sapiens, UniProt P12931); test: Selectivity interaction (Z’-LYTE assay) EUB0000638a SRC
[21] = target: Tyrosine-protein kinase Fgr (Homo sapiens, UniProt P09769); test: Selectivity interaction (Z’-LYTE assay) EUB0000638a FGR
[22] = target: Tyrosine-protein kinase Tec (Homo sapiens) (UniProt P42680); settings: at 1 µM
[23] = target: Receptor tyrosine-protein kinase erbB-4 (Homo sapiens) (UniProt Q15303); test: Selectivity interaction (KinomeScan (DiscoverX)) EUB0000638a ERBB4; settings: at 1 µM
[24] = target: T1, Sigma non-opioid intracellular receptor 1; test: Selectivity interaction (GPCR panel (PDSP screen)) EUB0000289bCl SIGMAR1
[25] = target: T5, Mitogen-activated protein kinase kinase kinase 13 (Homo sapiens) (UniProt O43283); test: Selectivity interaction (KinomeScan (DiscoverX)) EUB0000348aPTSA MAP3K13; settings: at 1 µM
T5 sequence (whole entry): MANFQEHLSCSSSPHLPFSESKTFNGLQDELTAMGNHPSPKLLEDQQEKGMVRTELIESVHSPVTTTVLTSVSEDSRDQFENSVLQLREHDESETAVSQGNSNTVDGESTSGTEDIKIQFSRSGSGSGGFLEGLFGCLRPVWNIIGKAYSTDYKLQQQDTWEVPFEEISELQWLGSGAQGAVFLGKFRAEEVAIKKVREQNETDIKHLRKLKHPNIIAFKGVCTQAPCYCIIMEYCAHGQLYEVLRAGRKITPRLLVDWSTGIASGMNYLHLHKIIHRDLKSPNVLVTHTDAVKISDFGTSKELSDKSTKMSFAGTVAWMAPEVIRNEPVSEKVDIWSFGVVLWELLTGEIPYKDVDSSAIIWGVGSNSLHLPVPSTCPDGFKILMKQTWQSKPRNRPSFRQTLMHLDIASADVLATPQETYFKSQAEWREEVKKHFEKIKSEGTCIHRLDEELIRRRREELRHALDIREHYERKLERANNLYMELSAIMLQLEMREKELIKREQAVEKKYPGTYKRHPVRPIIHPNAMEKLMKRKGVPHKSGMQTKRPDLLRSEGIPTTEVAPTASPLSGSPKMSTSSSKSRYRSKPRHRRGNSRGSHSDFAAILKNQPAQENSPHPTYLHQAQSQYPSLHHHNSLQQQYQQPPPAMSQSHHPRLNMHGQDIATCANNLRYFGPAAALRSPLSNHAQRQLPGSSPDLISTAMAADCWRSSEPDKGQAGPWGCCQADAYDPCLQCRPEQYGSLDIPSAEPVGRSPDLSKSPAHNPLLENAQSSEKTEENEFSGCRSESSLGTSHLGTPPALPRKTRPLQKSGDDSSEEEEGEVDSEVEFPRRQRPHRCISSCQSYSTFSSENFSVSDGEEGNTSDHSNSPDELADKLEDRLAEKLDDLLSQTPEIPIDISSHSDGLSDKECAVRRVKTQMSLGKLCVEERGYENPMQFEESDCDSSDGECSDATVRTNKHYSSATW

[26] = target: T2, Histamine H1 receptor; test: (§1) Selectivity interaction (GPCR panel (PDSP screen)) EUB0000348aPTSA HRH1
[27] = target: T2, Histamine H1 receptor; test: as §1; settings: at 10 µM
[28] = target: Delta-type opioid receptor (Homo sapiens) (UniProt P41143); test: Selectivity interaction (CEREP panel (Eurofins, receptors, ion channels, and other enzymes)) EUB0000348aPTSA OPRD1; settings: at 10 µM
[29] = target: Cyclin-dependent kinase 5 (Homo sapiens) (UniProt Q00535); test: Selectivity interaction (KinomeScan (DiscoverX)) EUB0000348aPTSA CDK5; settings: at 1 µM
[30] = target: Endothelin receptor type B (Homo sapiens) (UniProt P24530); settings: at 10 µM
[31] = target: Dual specificity protein kinase CLK4 (Homo sapiens) (UniProt Q9HAZ1); test: Selectivity interaction (KinomeScan (DiscoverX)) EUB0000348aPTSA CLK4; settings: at 1 µM
[32] = target: Alpha-2B adrenergic receptor (Homo sapiens, UniProt P18089); test: Selectivity interaction (GPCR panel (PDSP screen)) EUB0000309b ADRA2B
[33] = target: T5, Mitogen-activated protein kinase kinase kinase 13 (Homo sapiens); test: Selectivity interaction (KinomeScan (DiscoverX)) EUB0000547a MAP3K13; settings: at 1 µM
[34] = target: Tyrosine-protein kinase ZAP-70 (Homo sapiens) (UniProt P43403); test: Selectivity interaction (KinomeScan (DiscoverX)) EUB0000547a ZAP70; settings: at 1 µM
[35] = target: T6, Gamma-aminobutyric acid receptor subunit alpha-1 (Homo sapiens, UniProt P14867); test: Selectivity interaction (GPCR panel (PDSP screen)) EUB0000547a GABRA1
T6 sequence (P14867 whole entry): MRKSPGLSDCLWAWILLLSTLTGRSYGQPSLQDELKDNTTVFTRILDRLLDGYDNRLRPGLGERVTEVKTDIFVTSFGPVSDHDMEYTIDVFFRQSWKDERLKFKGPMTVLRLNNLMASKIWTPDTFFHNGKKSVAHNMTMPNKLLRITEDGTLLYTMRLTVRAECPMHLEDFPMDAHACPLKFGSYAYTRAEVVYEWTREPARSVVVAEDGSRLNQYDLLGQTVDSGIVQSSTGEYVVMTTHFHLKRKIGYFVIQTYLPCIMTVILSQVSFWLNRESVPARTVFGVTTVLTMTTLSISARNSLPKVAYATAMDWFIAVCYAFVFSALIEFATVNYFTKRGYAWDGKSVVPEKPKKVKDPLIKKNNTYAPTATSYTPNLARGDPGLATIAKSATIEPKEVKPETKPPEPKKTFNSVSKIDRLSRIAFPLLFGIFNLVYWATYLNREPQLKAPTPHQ

T2 sequence (P35367 whole entry): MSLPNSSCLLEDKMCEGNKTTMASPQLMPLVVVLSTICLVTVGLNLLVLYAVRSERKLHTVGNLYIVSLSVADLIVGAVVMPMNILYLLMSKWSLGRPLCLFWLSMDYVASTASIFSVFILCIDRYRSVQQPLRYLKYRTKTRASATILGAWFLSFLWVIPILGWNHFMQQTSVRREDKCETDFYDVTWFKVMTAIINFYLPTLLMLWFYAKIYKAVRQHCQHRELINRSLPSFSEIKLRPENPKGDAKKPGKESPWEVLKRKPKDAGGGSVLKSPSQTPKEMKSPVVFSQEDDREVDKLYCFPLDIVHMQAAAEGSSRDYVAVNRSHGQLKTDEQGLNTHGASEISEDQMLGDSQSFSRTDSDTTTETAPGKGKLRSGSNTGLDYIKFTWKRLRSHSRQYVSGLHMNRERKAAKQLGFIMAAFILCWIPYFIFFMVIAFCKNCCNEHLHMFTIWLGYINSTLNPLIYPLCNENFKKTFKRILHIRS
T1 sequence (Q99720 whole entry): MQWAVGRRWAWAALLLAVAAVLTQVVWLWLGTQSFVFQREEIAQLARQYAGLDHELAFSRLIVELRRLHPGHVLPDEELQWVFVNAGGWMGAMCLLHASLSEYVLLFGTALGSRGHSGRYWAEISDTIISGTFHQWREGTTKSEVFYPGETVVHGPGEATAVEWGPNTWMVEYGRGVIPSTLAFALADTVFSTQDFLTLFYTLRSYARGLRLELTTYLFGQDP
Proto-oncogene tyrosine-protein kinase Src, sequence (P12931 2-536 limits assumed): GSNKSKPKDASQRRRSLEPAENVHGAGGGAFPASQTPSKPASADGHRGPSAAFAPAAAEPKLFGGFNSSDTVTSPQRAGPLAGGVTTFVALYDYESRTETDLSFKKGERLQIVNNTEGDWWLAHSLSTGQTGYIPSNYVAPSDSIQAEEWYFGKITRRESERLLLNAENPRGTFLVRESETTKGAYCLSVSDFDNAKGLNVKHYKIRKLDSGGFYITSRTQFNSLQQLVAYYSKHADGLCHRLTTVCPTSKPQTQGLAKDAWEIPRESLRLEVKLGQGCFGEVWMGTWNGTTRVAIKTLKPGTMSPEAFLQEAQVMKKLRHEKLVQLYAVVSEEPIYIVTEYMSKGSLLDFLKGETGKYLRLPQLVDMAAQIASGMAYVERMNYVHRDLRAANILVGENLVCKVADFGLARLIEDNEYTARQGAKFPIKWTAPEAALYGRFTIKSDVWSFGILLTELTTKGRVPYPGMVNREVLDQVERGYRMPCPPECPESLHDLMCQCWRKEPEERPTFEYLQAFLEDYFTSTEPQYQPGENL
Tyrosine-protein kinase Fyn, sequence (P06241 whole entry): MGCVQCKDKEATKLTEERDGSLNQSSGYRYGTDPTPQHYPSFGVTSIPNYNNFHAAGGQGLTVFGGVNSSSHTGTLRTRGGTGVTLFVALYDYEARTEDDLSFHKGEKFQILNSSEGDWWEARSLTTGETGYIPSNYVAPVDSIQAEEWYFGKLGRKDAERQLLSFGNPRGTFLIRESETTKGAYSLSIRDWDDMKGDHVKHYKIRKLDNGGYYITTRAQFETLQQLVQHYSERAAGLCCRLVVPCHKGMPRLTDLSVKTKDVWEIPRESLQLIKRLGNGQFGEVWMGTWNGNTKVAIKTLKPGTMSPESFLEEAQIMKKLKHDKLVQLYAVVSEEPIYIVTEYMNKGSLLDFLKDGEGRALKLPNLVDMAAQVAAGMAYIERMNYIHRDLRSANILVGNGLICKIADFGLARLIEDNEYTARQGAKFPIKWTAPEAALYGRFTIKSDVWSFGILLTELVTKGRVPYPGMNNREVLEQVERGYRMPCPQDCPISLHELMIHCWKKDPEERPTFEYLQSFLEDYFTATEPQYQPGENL
Tyrosine-protein kinase Tec (Homo sapiens), sequence (P42680 whole entry): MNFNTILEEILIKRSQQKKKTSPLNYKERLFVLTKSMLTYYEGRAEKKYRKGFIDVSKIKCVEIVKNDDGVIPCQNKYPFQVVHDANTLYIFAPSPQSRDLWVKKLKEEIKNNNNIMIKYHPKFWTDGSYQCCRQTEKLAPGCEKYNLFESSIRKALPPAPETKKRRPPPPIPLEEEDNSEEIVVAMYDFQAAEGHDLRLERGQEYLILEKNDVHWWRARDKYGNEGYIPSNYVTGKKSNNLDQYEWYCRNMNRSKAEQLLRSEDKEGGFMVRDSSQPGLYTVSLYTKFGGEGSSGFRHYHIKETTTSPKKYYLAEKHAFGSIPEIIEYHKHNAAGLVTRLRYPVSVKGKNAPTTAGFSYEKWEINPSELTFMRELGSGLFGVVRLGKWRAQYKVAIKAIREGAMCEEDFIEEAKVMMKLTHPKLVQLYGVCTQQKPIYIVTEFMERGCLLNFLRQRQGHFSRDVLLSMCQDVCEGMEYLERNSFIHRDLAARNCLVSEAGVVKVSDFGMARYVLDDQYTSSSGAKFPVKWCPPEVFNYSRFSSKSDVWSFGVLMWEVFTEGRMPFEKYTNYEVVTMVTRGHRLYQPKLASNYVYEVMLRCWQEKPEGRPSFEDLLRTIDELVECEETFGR
Tyrosine-protein kinase Yes, sequence (P07947 whole entry): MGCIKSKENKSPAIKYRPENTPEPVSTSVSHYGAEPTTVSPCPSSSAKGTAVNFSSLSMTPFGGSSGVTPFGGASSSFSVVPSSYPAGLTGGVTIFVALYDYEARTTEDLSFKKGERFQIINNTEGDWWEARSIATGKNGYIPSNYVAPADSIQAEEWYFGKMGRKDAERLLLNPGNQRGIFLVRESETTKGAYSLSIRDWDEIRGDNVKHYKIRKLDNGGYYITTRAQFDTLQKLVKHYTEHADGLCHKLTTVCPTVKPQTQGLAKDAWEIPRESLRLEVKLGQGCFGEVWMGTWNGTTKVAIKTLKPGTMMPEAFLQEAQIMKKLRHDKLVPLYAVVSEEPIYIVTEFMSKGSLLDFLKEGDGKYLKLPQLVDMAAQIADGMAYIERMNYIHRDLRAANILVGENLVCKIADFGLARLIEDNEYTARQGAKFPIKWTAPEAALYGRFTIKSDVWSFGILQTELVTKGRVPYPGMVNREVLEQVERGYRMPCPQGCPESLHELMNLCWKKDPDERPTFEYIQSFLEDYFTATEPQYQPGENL
Endothelin receptor type B (Homo sapiens), sequence (P24530 whole entry): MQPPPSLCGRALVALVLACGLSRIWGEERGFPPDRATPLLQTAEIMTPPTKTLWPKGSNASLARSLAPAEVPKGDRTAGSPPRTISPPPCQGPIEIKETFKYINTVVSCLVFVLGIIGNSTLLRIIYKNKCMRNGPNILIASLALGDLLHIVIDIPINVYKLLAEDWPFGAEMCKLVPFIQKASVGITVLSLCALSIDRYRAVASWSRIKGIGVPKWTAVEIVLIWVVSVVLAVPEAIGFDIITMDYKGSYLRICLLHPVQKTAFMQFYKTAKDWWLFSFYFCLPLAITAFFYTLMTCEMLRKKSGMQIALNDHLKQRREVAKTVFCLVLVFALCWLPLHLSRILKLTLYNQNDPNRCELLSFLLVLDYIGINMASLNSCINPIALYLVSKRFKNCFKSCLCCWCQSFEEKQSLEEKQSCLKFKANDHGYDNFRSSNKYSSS
Tyrosine-protein kinase Blk, sequence (P51451 whole entry): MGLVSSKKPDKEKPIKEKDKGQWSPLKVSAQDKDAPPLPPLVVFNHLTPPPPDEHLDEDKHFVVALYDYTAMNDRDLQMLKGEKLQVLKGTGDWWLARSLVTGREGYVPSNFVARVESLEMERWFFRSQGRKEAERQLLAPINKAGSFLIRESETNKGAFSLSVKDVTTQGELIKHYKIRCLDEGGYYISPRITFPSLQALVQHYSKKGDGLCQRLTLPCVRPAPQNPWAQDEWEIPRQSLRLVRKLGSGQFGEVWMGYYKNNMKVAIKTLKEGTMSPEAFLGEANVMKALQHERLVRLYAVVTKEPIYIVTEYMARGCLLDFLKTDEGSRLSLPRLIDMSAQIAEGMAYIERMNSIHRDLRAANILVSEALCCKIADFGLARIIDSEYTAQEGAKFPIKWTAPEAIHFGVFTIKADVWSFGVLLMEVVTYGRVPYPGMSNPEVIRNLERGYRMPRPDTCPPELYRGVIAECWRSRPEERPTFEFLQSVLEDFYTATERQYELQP
Delta-type opioid receptor (Homo sapiens), sequence (P41143 whole entry): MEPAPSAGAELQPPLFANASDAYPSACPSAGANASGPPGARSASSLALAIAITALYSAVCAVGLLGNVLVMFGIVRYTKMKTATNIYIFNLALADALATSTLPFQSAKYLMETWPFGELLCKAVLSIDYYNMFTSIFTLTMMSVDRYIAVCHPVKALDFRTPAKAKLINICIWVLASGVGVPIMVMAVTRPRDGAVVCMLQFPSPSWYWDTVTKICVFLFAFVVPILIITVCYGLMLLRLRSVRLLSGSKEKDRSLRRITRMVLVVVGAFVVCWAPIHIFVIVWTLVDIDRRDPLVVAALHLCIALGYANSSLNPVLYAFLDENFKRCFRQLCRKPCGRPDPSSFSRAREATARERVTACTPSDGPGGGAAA
Cyclin-dependent kinase 5 (Homo sapiens), sequence (Q00535 whole entry, looked up): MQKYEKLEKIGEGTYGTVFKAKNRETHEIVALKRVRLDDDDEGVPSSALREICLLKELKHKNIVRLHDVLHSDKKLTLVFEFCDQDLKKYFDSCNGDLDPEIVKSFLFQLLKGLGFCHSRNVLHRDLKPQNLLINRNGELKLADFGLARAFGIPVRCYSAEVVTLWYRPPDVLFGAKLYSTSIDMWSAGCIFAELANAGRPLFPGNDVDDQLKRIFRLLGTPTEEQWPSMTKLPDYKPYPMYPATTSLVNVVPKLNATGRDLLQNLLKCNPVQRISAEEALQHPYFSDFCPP

Compound: Cn1c(-c2csc(C3CCN(CC4=NC5N=CC=CC5N4)CC3)n2)nc2ccccc21 (stereo not given) [BAY-070]
Ki [1]: 1.27 µM | Ki [2]: 1.53 µM

Compound: Cn1cncc1[C@](O)(COc1ccc(C#N)cc1-c1ccc(OC(F)(F)F)cc1)c1ccc(C#N)cc1 [ABT-100]
Kd [3]: > 10 µM | % of control [4]: 38% | % of inhibition [5]: 97% | % of control [6]: 48% | Kd [7]: > 10 µM | Ki [8]: > 10 µM | Kd [9]: > 10 µM | % of control [10]: 46% | Kd [11]: > 10 µM | % of control [12]: 48%

Compound: CC#CC(=O)N1CCC[C@H]1c1nc(-c2ccc(C(=O)Nc3ccccn3)cc2)c2c(N)nccn12 [ACALABRUTINIB]
IC50 [13]: > 10 µM | IC50 [14]: > 10 µM | IC50 [15]: > 10 µM | IC50 [16]: > 10 µM | IC50 [17]: > 10 µM | % of control [18]: 2.1% | IC50 [19]: > 10 µM | IC50 [20]: > 10 µM | IC50 [21]: > 10 µM | % of control [22]: 6.4% | % of control [23]: 4.3%

Compound: CCCCN(CCCC)C(=O)CN1C[C@@H](c2cc(OC)c3c(c2)OCO3)[C@H](C(=O)O)[C@H]1CC(C)(C)CCC
Ki [24]: 0.289 µM

Compound: CCCCN(CCCC)C(=O)CN1C[C@H](c2cc(OC)c3c(c2)OCO3)[C@@H](C(=O)O)[C@@H]1CC(C)(C)CCC
% of control [25]: 0% | Ki [26]: > 10 µM | % of inhibition [27]: 54% | % of inhibition [28]: 62% | % of control [29]: 0% | % of inhibition [30]: 56% | % of control [31]: 0%

The remaining lines, values ahead:

Ki [32]: 4.58 µM
Compound: NS(=O)(=O)c1cc(NC(=O)Cc2ccccc2)ccc1Oc1cccc(Cl)c1 [BAY-1797]

% of control [33]: 23% | % of control [34]: 38% | Ki [35]: 3.69 µM
Compound: CCC(=N\O)/C(C)=C/c1ccc(F)c(C)c1 [A-226]
